Laboratory results as given in US6127339A, “Peptide for binding thereto a low density lipoprotein” (Asahi Kasei Kogyo Kabushiki Kaisha, priority 1995, dated 2000).
No end group written: not given here.

What was measured:
[1] = test system: LDL; experiment: LDL-adsorbing ratio of peptide-bonded resin in LDL solution (decrease of free cholesterol); assay type: binding
[2] = test system: LDL; experiment: Staining of peptide-bonded resin with biotinylated LDL in plasma (ABC method); assay type: binding; design: key: the peptide-bonded resins which were stained are indicated with "+ (plus)"; the peptide-bonded resins which were not stained are indicated with "- (minus)"
Experimental: With respect to the adsorbent comprising the water-insoluble carrier having bonded thereto the peptide, as a method for evaluating the binding ability (affinity) of the adsorbent for an LDL, there can be mentioned a method in which, after causing an LDL to be adsorbed on the adsorbent, the adsorbent having the LDL adsorbed thereon is subjected to staining (avidin-biotin complex method, that is, ABC method). Specifically, a biotinylated LDL is added to plasma, and the adsorbent is immersed in the plasma for a predetermined period of time. Then, the adsorbent is taken out of the plasma, and washed. Subsequently, the adsorbent is immersed in a horseradish peroxidase-labeled streptoavidin solution, and a solution of 3,3'-diamino benzidine, which is a substrate for the above-mentioned enzyme (horseradish peroxidase), is added thereto, thereby staining the adsorbent. The binding ability of the adsorbent for LDL is evaluated from the degree of the staining. With respect to methods for evaluating a binding ability for LDL, reference can be made to, for example, the following literature: S. M. Hsu, L. Raine, H. Fanger, J. Histchem. Cytochem., 29, 577 (1981); and H. Towbin, T. Staehelin, J. Gordon, Proc. Natl. Acad. Sci. U.S.A., 76, 4350 (1979).
The ability of each of the peptides to bind thereto an LDL was evaluated as follows. To a blood sample obtained from a healthy person was added a 3.8% aqueous solution of sodium citrate to thereby obtain a mixture. The obtained mixture was centrifuged to separate the blood sample into a blood cells component and a plasma component.
On the other hand, each of the above-mentioned polystyrene resins having bonded thereto the above-synthesized peptides was individually taken out from the synthesis reaction system and packed in a column having a filter (manufactured and sold by Bio-Rad laboratories, U.S.A.). Subsequently, the plasma-LDL mixture prepared above was added to the column, and the column was allowed to stand at room temperature for 1 hour. Then, the column was washed with a physiological saline containing 0.1% Tween 20 and sodium phosphate. After the washing, 1 ml of a horseradish peroxidase-labeled streptoavidine (0.2 ug/ml) solution containing 10% Block Ace (manufacturedand sold by Dainippon Pharmaceutical Co., Ltd., Japan) was added to the column, and the column was allowed to stand at room temperature for 30 minutes. Then, 1 ml of a 3,3'-diaminobenzidine tetrahydrochloride ([…]) solution containing 0.005% hydrogen peroxide was added to the column (by the addition of this solution, when a peptide-bonded resin contained in the column has the LDL bonded thereto, the resin is stained to assume brown color).
Results are shown in Table 1, wherein the peptide-bonded resins which were stained are indicated with "+ (plus)" and the peptide-bonded resins which were not stained are indicated with "- (minus)".
The ability of each of the peptides to bind thereto an LDL was evaluated in substantially the same manner as in Example 1.

[3] = Table 3, peptide-bonded resin 85 mg dry, 1 ml LDL solution 50 μg/ml in PBS
[4] = Table 4, peptide-bonded resin 85 mg dry, 1 ml LDL solution 50 μg/ml in PBS
[5] = Table 5, D-form and L-form peptides on resin, same manner as Example 4
[6] = Table 6, peptide-bonded resin, same manner as Example 4
[7] = Table 2, peptide-bonded TG resin, same manner as Example 1
[8] = Table 1, peptide-bonded TG resin, room temperature 1 hour, peroxidase-streptoavidin/3,3'-diaminobenzidine

Substance: WAWEEGGGGG (not fully specified) [comparative peptide bonded to TG polystyrene resin, electric charge 0 or less, reference compound]
- LDL-adsorbing ratio (%) [1, 3]: 4.3%

Substance: WFWRR (not fully specified) [peptide bonded to TG polystyrene resin]
- LDL-adsorbing ratio (%) [1, 4]: 49.0%
- LDL-adsorbing ratio (%) ([1]; Table 5, D-form and L-form peptides on resin, same manner as Example 4, listed as WFWRR (L-form)): 39.1%

Substance: LFLMRGGGGG
- LDL-adsorbing ratio (%) [1, 3]: 36.9%

Substance: WFWRR [WFWRR (D-form)]
- LDL-adsorbing ratio (%) [1, 5]: 38.3%

Substance: WWR [WWR (D-form)]
- LDL-adsorbing ratio (%) [1, 5]: 41.6%

Substance: WFWK (not fully specified) [peptide bonded to TG polystyrene resin]
- LDL-adsorbing ratio (%) [1, 4]: 33.0%

Substance: WFWKK (not fully specified) [peptide bonded to TG polystyrene resin]
- LDL-adsorbing ratio (%) [1, 4]: 43.0%

Substance: WAAAAR (not fully specified) [peptide bonded to TG polystyrene resin]
- LDL-adsorbing ratio (%) [1, 6]: 26.3%

Substance: WWK
- LDL-adsorbing ratio (%) [1, 4]: 25.0%

Substance: WAAAAAR (not fully specified) [peptide bonded to TG polystyrene resin]
- LDL-adsorbing ratio (%) [1, 6]: 23.7%

Substance: WAWRRGGGGG (not fully specified) [peptide bonded to TG polystyrene resin]
- LDL-adsorbing ratio (%) [1, 3]: 49.8%

Substance: FFFFFFGGGGG [comparative peptide bonded to TG polystyrene resin, electric charge 0 or less, reference compound]
- LDL-adsorbing ratio (%) [1, 3]: 2.6%

Substance: WAAAR (not fully specified) [peptide bonded to TG polystyrene resin]
- LDL-adsorbing ratio (%) [1, 6]: 39.3%

Substance: WWWR [WWWR (L-form)] (also: L-form) [peptide bonded to TG polystyrene resin]
- LDL-adsorbing ratio (%) [1, 5]: 42.2%

Substance: WWWR [WWWR (D-form)]
- LDL-adsorbing ratio (%) [1, 5]: 33.8%

Substance: Comparative Example 2 Sample 4: comparative pentapeptide N1-N5 = P N A F A, bonded to TG polystyrene resin (PNAFA; not fully specified; printed as Pro Asn Ala Phe Ala) [reference compound]
- Stain [2, 7]: -

Substance: WAR
- LDL-adsorbing ratio (%) [1, 6]: 32.3%

Substance: Example 2 Sample 7: pentapeptide N1-N5 = W R Y D R, bonded to TG polystyrene resin (WRYDR; not fully specified; printed as Trp Arg Tyr Asp Arg)
- Stain [2, 7]: +

Substance: Comparative Example 2 Sample 10: comparative pentapeptide N1-N5 = F I I M E, bonded to TG polystyrene resin (FIIME; not fully specified; printed as Phe Ile Ile Met Glu) [reference compound]
- Stain [2, 7]: -

Substance: WAAR (not fully specified) [peptide bonded to TG polystyrene resin]
- LDL-adsorbing ratio (%) [1, 6]: 36.3%

Substance: Example 2 Sample 10: pentapeptide N1-N5 = L W K S F, bonded to TG polystyrene resin (LWKSF; not fully specified; printed as Leu Trp Lys Ser Phe)
- Stain [2, 7]: +

Substance: Example 1 Sample 1: pentapeptide N1-N5 = R F Y Y M, bonded to TG polystyrene resin (RFYYM; not fully specified; printed as Arg Phe Tyr Tyr Met)
- Stain [2, 8]: +

Substance: LFLMR (not fully specified) [peptide bonded to TG polystyrene resin]
- LDL-adsorbing ratio (%) [1, 3]: 39.3%

Substance: Example 2 Sample 6: pentapeptide N1-N5 = K H I Y W, bonded to TG polystyrene resin (KHIYW; not fully specified; printed as Lys His Ile Tyr Trp)
- Stain [2, 7]: +

Substance: WAWRR (not fully specified) [peptide bonded to TG polystyrene resin]
- LDL-adsorbing ratio (%) [1, 3]: 62.2%

Substance: Comparative Example 1 Sample 2: comparative pentapeptide N1-N5 = P K S I N, bonded to TG polystyrene resin (PKSIN; not fully specified; printed as Pro Lys Ser Ile Asn) [reference compound]
- Stain [2, 8]: -

Substance: Example 2 Sample 12: pentapeptide N1-N5 = L N F R W, bonded to TG polystyrene resin (LNFRW; not fully specified; printed as Leu Asn Phe Arg Trp)
- Stain [2, 7]: +

Substance: WFWR (not fully specified) [peptide bonded to TG polystyrene resin]
- LDL-adsorbing ratio (%) [1, 4]: 35.0%

Substance: WWR
- LDL-adsorbing ratio (%) [1, 4]: 32.0%
- LDL-adsorbing ratio (%) ([1]; Table 5, D-form and L-form peptides on resin, same manner as Example 4, listed as WWR (L-form)): 33.8%
